“Also recorded” adds a separate entry of the source.
What was measured:
Format in all cases: in vivo, mice
[1] = test system: influenza X31 strain (H3N2); settings: lung homogenates, FIG. 9
[2] = test system: influenza X31 strain (H3N2); assay: T cell recruitment (CD4, CD8 surface markers) by flow cytometry
[3] = test system: influenza X31 strain (H3N2); assay: Macrophages and neutrophils in airspaces and lung by flow cytometry
[4] = test system: influenza X31 strain (H3N2); settings: day 7
[5] = test system: influenza X31 strain (H3N2); assay: Total viable cell counts in the airway (BAL) and lung tissue, trypan blue exclusion; settings: 100 μg/mouse i.p. daily
[6] = test system: influenza X31 strain (H3N2)
[7] = early (day 3), 100 μg/mouse i.p. daily, FIG. 5
[8] = day 7, between the animal groups

With `COc1ccc(C(CC(N)=O)N2Cc3ccccc3C2=O)cc1OC` (stereo not shown) [Compound 1] as the molecule, how does the recovered viral titer ([1]; early stages of viral replication (day 3)) read?
Its recovered viral titer is “blunted the recovered viral titer”.

And the peak viral load ([1]; 100 μg/mouse i.p. daily)?
Its peak viral load is “reduced peak viral load”.

What about the “CD8+ T cells” value ([2]; any time point analyzed (day 3, day 7)) of the same molecule?
Its value is “No difference”.

And the “early CD4+ T cell recruitment to the airways (BAL)” value ([2]; day 3, 100 μg/mouse i.p. daily, FIG. 5)?
Its value is “reduced”.

What about the “T cell recruitment / later T cell populations (CD4)” value ([2]; day 7, airway and lung, FIG. 6) of the same molecule?
The value was “no differences; also recorded: did not affect later T cell populations”.

What about the “CD4+ T cells in the lung parenchyma” value [2, 7] of the same molecule?
The value was “corresponding accumulation”.

And the T cell recruitment [2, 7]?
Its T cell recruitment is “reduced T cell recruitment; also recorded: affected early T cell recruitment”.

What about the “proportion of macrophages among cells recovered from the airspaces” value ([3]; […], 100 μg/mouse i.p. daily, FIG. 3) of the same molecule?
Its value is “higher proportion”.

And the “neutrophils (CD11c+ and Ly6g+) in the airspaces, reduction in total cells” value ([3]; day 3, 100 μg/mouse i.p. daily, FIG. 4)?
The value was “primarily associated with neutrophils”.

And the “number of macrophages, all sites” value [3, 8]?
Its value is “no significant differences”.

What about the “number of neutrophils, all sites” value [3, 8] of the same molecule?
The value was “no significant differences”.

What about the “CD8+ T cells cytokine expression” value [4] of the same molecule?
The value was “remained unchanged”.

And the “CD4+ T cells producing IFNγ in the lung tissue” value ([4]; vs untreated mice and vehicle controls, FIG. 7)?
Its value is “partial reduction”.

What about the “cellular infiltrate into the airway (BAL), total viable cells” value ([5]; […], FIG. 2) of the same molecule?
The value was “significantly reduced the cellular infiltrate”.

What about the “cell counts in the airway (BAL fluid) relative to infected mice not treated” value ([5]; day 3) of the same molecule?
Its value is “less than half”.

And the “reduction of cellular infiltrate in the lung parenchyma” value ([5]; day 3 or day 7, FIG. 2)?
Its value is “not observed”.

And the “reduction of cellular infiltrate into the airway (BAL)” value ([5]; day 7, FIG. 2)?
The value was “not observed”.

What about the “weight loss (percent original weight)” value ([6]; 100 μg/mouse i.p. daily days 0-6, vs vehicle control and untreated, FIG. 1) of the same molecule?
Its value is “significantly reduced weight loss”.

What about the visible health appearance ([6]; controls hunched and cachexic on day 5) of the same molecule?
The visible health appearance was “appeared visibly in better health”.
